Test results as given in patent US10912850B2, “18F-FNDP for pet imaging of soluble epoxide hydrolase (sEH)” (THE JOHNS HOPKINS UNIVERSITY, priority 2016, dated 2021).
Where “and” joins values, the source holds several entries; their conditions need not be identical. Identical values can stand only once. Like-named read-outs stand apart in the source and are kept apart here.

Legend:
[1] = Baseline regional brain biodistribution of 18F-FNDP in CD-1 mice; format: in vivo; settings: for Regional distribution in CD-1 mouse brain (mean % ID/g tissue ± SD): n=3
Protocol: Baseline study in CD1 mice. […] The brains were removed and dissected on ice. Striatum, cortex, hippocampus, hypothalamus, cerebellum and the rest of brain were weighed and their radioactivity content was determined in a γ-counter LKB/Wallac 1283 CompuGamma CS (Perkin Elmer, Bridgeport, Conn.). Aliquots of the injectate were prepared as standards and their radioactivity content was determined along with the tissue samples. The percent of injected dose per gram of tissue (% ID/g tissue) was calculated.

sEH [2] = target: T1, sEH (Mus musculus, UniProt P34914); experiment: Blocking of 18F-FNDP binding in CD-1 mice with nor-fluoro-FNDP (dose escalation); format: in vivo
T1 construct: from tissue; host or cells: brain of living CD-1 mice (striatum, cortex, hippocampus, cerebellum)
T1 sequence (P34914 1-554): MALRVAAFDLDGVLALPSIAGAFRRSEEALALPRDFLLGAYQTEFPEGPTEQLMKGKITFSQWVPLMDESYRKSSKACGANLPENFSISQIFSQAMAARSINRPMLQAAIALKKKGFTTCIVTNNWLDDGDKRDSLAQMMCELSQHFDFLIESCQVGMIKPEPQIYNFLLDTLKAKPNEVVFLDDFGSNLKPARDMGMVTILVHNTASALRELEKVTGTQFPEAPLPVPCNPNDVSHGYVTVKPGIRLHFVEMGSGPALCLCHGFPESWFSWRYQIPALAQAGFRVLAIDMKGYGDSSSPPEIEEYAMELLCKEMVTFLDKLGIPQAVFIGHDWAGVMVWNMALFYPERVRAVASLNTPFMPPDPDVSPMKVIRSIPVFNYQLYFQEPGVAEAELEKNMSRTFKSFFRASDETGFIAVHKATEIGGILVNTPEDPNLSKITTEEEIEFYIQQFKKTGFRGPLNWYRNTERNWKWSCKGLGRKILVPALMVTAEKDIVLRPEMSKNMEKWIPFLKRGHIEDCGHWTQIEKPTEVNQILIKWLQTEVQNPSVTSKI
Protocol: Ninety minutes after administration of the radiotracer the animals were sacrificed by cervical dislocation, brain tissues were harvested, and their radioactivity content was determined.

sEH [3] = format: in vivo, mice (sEH-KO, C57BL/6); settings: for Regional uptake, baseline: C57BL6 control mice, 60 min post-injection
Protocol: All animals were sacrificed at 60 min after radiotracer injection.

sEH [4] = experiment: Baboon dynamic PET imaging, baseline and blocking (SUV, VT, K1); settings: for Time of regional TAC peak: post-injection; for Average K1 (rate constant for transfer from arterial plasma to tissue): two-tissue-three-compartment model
Protocol: Dynamic baseline and blocking PET experiments (90 min) were performed on three male baboons (Papio anubis) weighing 23.9, 25.0 and 28.2 kg, using the High Resolution Research Tomograph (HRRT, CPS Innovations, Inc., Knoxville, Tenn.). […] Radiometabolite analysis in baboon arterial blood was performed under the general conditions published previously (Hilton et al., Nucl. Med. Biol., 2000).
PET experiments were performed on a male baboon (Papio anubis) weighing 28.2 kg, using the High Resolution Research Tomograph (HRRT, CPS Innovations, Inc., Knoxville, Tenn.). The animal underwent one baseline PET scan and one blocking scan 3 weeks later. The animal was fasted for 12 h prior to each PET study. Anesthesia was induced with intramuscular ketamine (7.5-10 mg/kg) and maintained with a continuous intravenous infusion of propofol at 0.3-0.4 mg/kg/min throughout the PET experiment. One venous catheter was inserted for the radioligand injection, and one arterial catheter inserted to obtain arterial blood samples. Measurement of the arterial plasma input function was conducted through collection of 43 blood samples over the course of the 90 min dynamic PET scan. The baboon was also intubated to facilitate respiration, and circulatory volume was maintained by constant infusion of isotonic saline. Physiological vital signs including heart rate, blood pressure, electrocardiogram, and oxygen saturation were monitored continuously throughout the study.
The animal was positioned in the PET scanner with the head immobilized with a thermoplastic mask. A 6 min transmission scan was acquired using a rotating [^137Cs] cesium source for attenuation correction.
The 90 min PET list mode data were binned into 22 frames (three 20 s, two 30 s, two 1 min, three 2 min, eight 5 min, and four 10 min frames). The data were then reconstructed using the iterative ordered subsets expectation maximization (OS-EM) algorithm (with six iterations and 16 subsets), with correction for radioactive decay, dead time, attenuation, scatter and randoms. The attenuation maps were generated from 6 min transmission scans performed with a [^137Cs] cesium point source prior to the emission scans. The reconstructed image space consisted of cubic voxels, each 1.22 mm^3 in size, and spanning dimensions of 31 cm×31 cm (transaxially) and 25 cm (axially).
The software package PMOD (v3.3, PMOD Technologies Ltd, Zurich, Switzerland) was used for the following image processing and subsequent kinetic analysis steps. The previously acquired brain MRI T1-weighted images for the baboon were co-registered to the reconstructed dynamic PET images acquired in this study. Through manually matching the co-registered MRI to the INIA19 Template and NeuroMaps Atlas for Primate Brain Image Parcellation and Spatial Normalization (Rohlfing et al., Frontiers in neuroinformatics, 2012), 13 representative baboon brain VOIs were defined, including frontal and temporal gyms, thalamus, hippocampus, caudate, putamen, amygdala, globus pallidus, insula, hypothalamus, cerebellum, corpus callosum, and white matter. Brain regional TACs were then generated for both baseline and blocking PET scans using those VOIs.
Following the consensus nomenclature for in vivo imaging of reversibly binding radioligands (Innis et al., J. Cereb. Blood Flow Metab., 2007), due to the lack of a non-displaceable reference region, the main outcome measure was regional distribution volume (VT), defined as the ratio of the concentration of the radioligand in regional brain tissue to that in plasma at equilibrium. Regional VT is proportional to the receptor density in the defined VOL VT was calculated using the Logan graphical method for each VOI (Logan et al., J. Cereb. Blood Flow Metab., 1990).

[5] = Radiometabolite HPLC analysis of baboon arterial plasma; format: in vivo, Papio anubis (baboon); settings: 90 min post-injection
Protocol: Baboon arterial blood samples were collected at very short intervals (<5 s) initially and gradually at prolonged intervals throughout the PET study for determination of plasma radioactivity. […] Med. Biol., 2000). […] The effluent from the capture column, containing only highly polar components, flowed through a dual BGO detector (Bioscan, Washington, D.C.). The solvent was then switched to a mixture of 60% acetonitrile/40% 0.1 M aqueous ammonium formate pH=2.7 (2 mL/min) to elute the radiolabeled components bound to the capture column onto the analytical column (Gemini C18, 4.6×254 mm, Phenomenex, Torrance, Calif.).

[6] = Molecular properties (log P); format: physicochemical

O=C(NCCC(c1ccccc1)c1ccccc1)c1ccc([18F])nc1 [^18F-FNDP, N-(3,3-diphenylpropyl)-6-^18F-fluoronicotinamide]
Peak brain uptake ([1]; CD-1 mice, at peak uptake): 5.2 percent injected dose per gram of tissue
Regional distribution in CD-1 mouse brain (mean % ID/g tissue ± SD) ([1]; Cerebellum, 5 min): 2.75 ± 0.11 % ID/g tissue
Regional distribution in CD-1 mouse brain (mean % ID/g tissue ± SD) ([1]; Cerebellum, 15 min): 1.31 ± 1.01 % ID/g tissue
Regional distribution in CD-1 mouse brain (mean % ID/g tissue ± SD) ([1]; Cerebellum, 30 min): 1.09 ± 0.16 % ID/g tissue
Regional distribution in CD-1 mouse brain (mean % ID/g tissue ± SD) ([1]; Cerebellum, 60 min): 0.52 ± 0.07 % ID/g tissue
Regional distribution in CD-1 mouse brain (mean % ID/g tissue ± SD) ([1]; Cerebellum, 90 min): 0.29 ± 0.04 % ID/g tissue
Regional distribution in CD-1 mouse brain (mean % ID/g tissue ± SD) ([1]; Cortex, 5 min): 4.69 ± 0.21 % ID/g tissue
Regional distribution in CD-1 mouse brain (mean % ID/g tissue ± SD) ([1]; Cortex, 15 min): 2.92 ± 0.36 % ID/g tissue
Regional distribution in CD-1 mouse brain (mean % ID/g tissue ± SD) ([1]; Cortex, 30 min): 2.07 ± 0.05 % ID/g tissue
Regional distribution in CD-1 mouse brain (mean % ID/g tissue ± SD) ([1]; Cortex, 60 min): 0.87 ± 0.14 % ID/g tissue
Regional distribution in CD-1 mouse brain (mean % ID/g tissue ± SD) ([1]; Cortex, 90 min): 0.45 ± 0.05 % ID/g tissue
Regional distribution in CD-1 mouse brain (mean % ID/g tissue ± SD) ([1]; Hippocampus, 5 min): 3.29 ± 0.54 % ID/g tissue
Regional distribution in CD-1 mouse brain (mean % ID/g tissue ± SD) ([1]; Hippocampus, 15 min): 2.51 ± 0.34 % ID/g tissue
Regional distribution in CD-1 mouse brain (mean % ID/g tissue ± SD) ([1]; Hippocampus, 30 min): 1.76 ± 0.15 % ID/g tissue
Regional distribution in CD-1 mouse brain (mean % ID/g tissue ± SD) ([1]; Hippocampus, 60 min): 0.81 ± 0.15 % ID/g tissue
Regional distribution in CD-1 mouse brain (mean % ID/g tissue ± SD) ([1]; Hippocampus, 90 min): 0.43 ± 0.06 % ID/g tissue
Regional distribution in CD-1 mouse brain (mean % ID/g tissue ± SD) ([1]; Hypothalamus, 5 min): 2.59 ± 0.18 % ID/g tissue
Regional distribution in CD-1 mouse brain (mean % ID/g tissue ± SD) ([1]; Hypothalamus, 15 min): 1.66 ± 0.28 % ID/g tissue
Regional distribution in CD-1 mouse brain (mean % ID/g tissue ± SD) ([1]; Hypothalamus, 30 min): 1.04 ± 0.08 % ID/g tissue
Regional distribution in CD-1 mouse brain (mean % ID/g tissue ± SD) ([1]; Hypothalamus, 60 min): 0.51 ± 0.07 % ID/g tissue
Regional distribution in CD-1 mouse brain (mean % ID/g tissue ± SD) ([1]; Hypothalamus, 90 min): 0.31 ± 0.05 % ID/g tissue
Regional distribution in CD-1 mouse brain (mean % ID/g tissue ± SD) ([1]; Rest of brain, 5 min): 3.53 ± 0.11 % ID/g tissue
Regional distribution in CD-1 mouse brain (mean % ID/g tissue ± SD) ([1]; Rest of brain, 15 min): 2.37 ± 0.34 % ID/g tissue
Regional distribution in CD-1 mouse brain (mean % ID/g tissue ± SD) ([1]; Rest of brain, 30 min): 1.64 ± 0.06 % ID/g tissue
Regional distribution in CD-1 mouse brain (mean % ID/g tissue ± SD) ([1]; Rest of brain, 60 min): 0.71 ± 0.10 % ID/g tissue
Regional distribution in CD-1 mouse brain (mean % ID/g tissue ± SD) ([1]; Rest of brain, 90 min): 0.38 ± 0.04 % ID/g tissue
Regional distribution in CD-1 mouse brain (mean % ID/g tissue ± SD) ([1]; Striatum, 5 min): 5.24 ± 0.45 % ID/g tissue
Regional distribution in CD-1 mouse brain (mean % ID/g tissue ± SD) ([1]; Striatum, 15 min): 3.29 ± 0.36 % ID/g tissue
Regional distribution in CD-1 mouse brain (mean % ID/g tissue ± SD) ([1]; Striatum, 30 min): 2.32 ± 0.15 % ID/g tissue
Regional distribution in CD-1 mouse brain (mean % ID/g tissue ± SD) ([1]; Striatum, 60 min): 1.07 ± 0.14 % ID/g tissue
Regional distribution in CD-1 mouse brain (mean % ID/g tissue ± SD) ([1]; Striatum, 90 min): 0.54 ± 0.07 % ID/g tissue
Peak brain uptake value ([1]; mouse brain, peak (5 min post-injection)): 5.2 % ID/g and 5 % ID/g
Residual (non-specific) binding at the high dose of the blocker (sEH [2]; CD-1 mouse brain, blocker nor-fluoro-FNDP): 10%
Blockade of uptake (sEH [2]; mice, all brain regions, pre-treatment with sEH inhibitor): 80-90%
Degree of specificity of cerebral sEH labeling (sEH [2]; two strains of control mice (CD-1 and C57BL/6)): 80-90%
Regional uptake, baseline (sEH [3]; cerebellum): 0.5 % ID/g
Regional uptake, baseline (sEH [3]; striatum, hippocampus and cortex): about 1 % ID/g
Brain uptake, blocking experiment (sEH [3]; C57BL6 mice, all regions studied, nor-fluoro-FNDP 1 mg/kg s.c., 60 min): ~0.2 % ID/g tissue
Blocking effect (sEH [3]; C57BL/6 controls, nor-fluoro-FNDP 1 mg/kg s.c.): about 80%
Reduction of uptake in sEH-KO mice as compared with controls (sEH [3]; baseline, 60 min after radiotracer injection, C57BL/6 controls): about 90%
Radiotracer uptake in sEH-KO mice (sEH [3]; sEH-KO mice): Minimal
Regional brain uptake, baseline (sEH [3]; sEH-KO mice, 60 min): 0.11-0.12 % ID/g
Reduction of uptake in blockade study (sEH [3]; sEH-KO mice, blocker nor-fluoro-FNDP): negligible
Regional brain uptake, blocking (sEH [3]; sEH-KO mice, nor-fluoro-FNDP 1 mg/kg s.c., 60 min): 0.10-0.11 % ID/g
Brain uptake in sEH-KO mice lower than in controls (sEH [3]; sEH-KO vs controls): 10 fold
Blockade of brain uptake (sEH [4]; baboon PET, all regions): 95%
Time of regional TAC peak (sEH [4]; baboon blocking study (nor-fluoro-FNDP 2 mg/kg s.c.)): about 1 min
Average SUV at the end of the scan (sEH [4]; baboon blocking study, end of 90 min scan): 0.18 g/mL
Brain SUV (sEH [4]; baboon brain): 4
Time of regional TAC peak (sEH [4]; baboon brain, baseline scan): about 5 min
Peak SUV of the entire brain (sEH [4]; baboon, baseline scan): 3.2
SUV of the entire brain at the end of the scan (sEH [4]; baboon, baseline, end of 90 min dynamic scan): 1.8
Average K1 (rate constant for transfer from arterial plasma to tissue) (sEH [4]; baboon, baseline): 0.18 ml/cm^3/min
Average K1 (rate constant for transfer from arterial plasma to tissue) (sEH [4]; baboon, blocking): 0.14 ml/cm^3/min
Reduction of VT, blocking vs baseline (sEH [4]; baboon, cerebellum): 93%
Average SUV at end of blocking scan as percent of the baseline value (sEH [4]; baboon, end of 90 min scan): 10%
Reduction of VT, blocking vs baseline (sEH [4]; baboon, insula and amygdala): 95%
Specificity of sEH radiolabeling (sEH [4]; both animal species (mouse and baboon)): up to 95%
Parent compound remaining in plasma [5]: 20%

O=C(NCCC(c1ccccc1)c1ccccc1)c1ccc(F)nc1 [FNDP, N-(3,3-diphenylpropyl)-6-fluoronicotinamide]
log P [6]: 2.9
